Where “and” joins values, the source holds several entries; their conditions need not be identical. Equal values may be shown once. Inconclusive results and toxic doses are left out. No stated cut-off is given here; in the data, active means T/C of 150% or more; inactive means T/C below 125%.
Test system: L1210 leukemia ip in BDF1 mice, survival T/C
Assay: NCI In Vivo Anticancer Drug Screen. Data for tumor model L1210 Leukemia (intraperitoneal) in B6D2F1 (BDF1) mice
Details: endpoint: mean survival time, higher = longer survival
Method in brief: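 Survival endpoint. Drug-treated group vs vehicle group, expressed as T divided by C. Tumor passaged by transplantation.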

[1] = dose: 100.0 mg/kg/injection, schedule: Q04DX003 (ip), vehicle: Klucel (hydroxypropylcellulose) (HPC)
[2] = dose: 200.0 mg/kg/injection, schedule: Q04DX003 (ip), vehicle: Klucel (hydroxypropylcellulose) (HPC)
[3] = dose: 400.0 mg/kg/injection, schedule: Q04DX003 (ip), vehicle: Klucel (hydroxypropylcellulose) (HPC)
[4] = dose: 100.0 mg/kg/injection, schedule: Q01DX001 (ip), vehicle: Klucel (hydroxypropylcellulose) (HPC)
[5] = dose: 200.0 mg/kg/injection, schedule: Q01DX001 (ip), vehicle: Klucel (hydroxypropylcellulose) (HPC)
[6] = dose: 400.0 mg/kg/injection, schedule: Q01DX001 (ip), vehicle: Klucel (hydroxypropylcellulose) (HPC)
[7] = dose: 100.0 mg/kg/injection, schedule: Q01DX009 (ip), vehicle: Klucel (hydroxypropylcellulose) (HPC)
[8] = dose: 200.0 mg/kg/injection, schedule: Q01DX009 (ip), vehicle: Klucel (hydroxypropylcellulose) (HPC)
[9] = dose: 400.0 mg/kg/injection, schedule: Q01DX009 (ip), vehicle: Klucel (hydroxypropylcellulose) (HPC)
[10] = dose: 100.0 mg/kg/injection, schedule: Q01DX001 (ip), vehicle: carboxymethylcellulose (CMC)
[11] = dose: 200.0 mg/kg/injection, schedule: Q01DX001 (ip), vehicle: carboxymethylcellulose (CMC)
[12] = dose: 400.0 mg/kg/injection, schedule: Q01DX001 (ip), vehicle: carboxymethylcellulose (CMC)
[13] = dose: 50.0 mg/kg/injection, schedule: Q01DX001 (ip), vehicle: Klucel (hydroxypropylcellulose) (HPC)
[14] = dose: 50.0 mg/kg/injection, schedule: Q01DX001 (ip), vehicle: carboxymethylcellulose (CMC)
[15] = dose: 100.0 mg/kg/injection, schedule: Q01DX009 (ip), vehicle: saline with Tween-80
[16] = dose: 200.0 mg/kg/injection, schedule: Q01DX009 (ip), vehicle: saline with Tween-80
[17] = dose: 400.0 mg/kg/injection, schedule: Q01DX009 (ip), vehicle: saline with Tween-80

Measured: T/C

CCOC(=O)c1cnc2onc(C)c2c1Nc1cccc(C(F)(F)F)c1
inactive: [1] 90 % of control | [2] 97 % of control | [3] 101 % of control

Cc1ccc(Cl)cc1N=Cc1cccc([N+](=O)[O-])c1
inactive: dose: 75.0 mg/kg/injection, schedule: Q04DX003 (ip), vehicle: Klucel (hydroxypropylcellulose) (HPC) 96 % of control | [4] 100 % of control | dose: 150.0 mg/kg/injection, schedule: Q04DX003 (ip), vehicle: Klucel (hydroxypropylcellulose) (HPC) 93 % of control | [5] 97 % of control | dose: 300.0 mg/kg/injection, schedule: Q04DX003 (ip), vehicle: Klucel (hydroxypropylcellulose) (HPC) 93 % of control | [6] 101 % of control

CCCCC(CC)C(O)C(C)C(C)O (stereo not given)
inactive: [7] 97 % of control | [1] 101 % of control | [8] 102 % of control | [2] 98 % of control | [9] 100 % of control | [3] 95 % of control

CC[N+](CC)(CC)Cc1ccccc1
inactive: dose: 6.25 mg/kg/injection, schedule: Q01DX009 (ip), vehicle: Klucel (hydroxypropylcellulose) (HPC) 104 % of control | dose: 6.25 mg/kg/injection, schedule: Q04DX003 (ip), vehicle: saline 113 % of control | dose: 12.5 mg/kg/injection, schedule: Q01DX009 (ip), vehicle: Klucel (hydroxypropylcellulose) (HPC) 107 % of control | dose: 12.5 mg/kg/injection, schedule: Q04DX003 (ip), vehicle: saline 97 % of control | dose: 25.0 mg/kg/injection, schedule: Q01DX001 (ip), vehicle: saline 96 % of control and 100 % of control | dose: 25.0 mg/kg/injection, schedule: Q01DX009 (ip), vehicle: Klucel (hydroxypropylcellulose) (HPC) 98 % of control and 100 % of control | dose: 25.0 mg/kg/injection, schedule: Q04DX003 (ip), vehicle: saline 97 % of control and 100 % of control | dose: 50.0 mg/kg/injection, schedule: Q01DX001 (ip), vehicle: saline 98 % of control and 102 % of control | dose: 50.0 mg/kg/injection, schedule: Q04DX003 (ip), vehicle: saline 98 % of control

COc1ccccc1CN1CCCN(Cc2ccccc2OC)C1c1cc(Br)c(OC)c(OC)c1
inactive: [10] 91 % of control | [11] 91 % of control | [12] 87 % of control

COc1cc(C2(O)C=C(C)C(=O)C=C2C)c(OC)cc1C (stereo not given)
inactive: [13] 92 % of control | [4] 87 % of control | [5] 86 % of control

CC(=O)N1Cc2c(N)ncnc2C1C (stereo not given)
inactive: dose: 100.0 mg/kg/injection, schedule: Q01DX001 (ip), vehicle: saline 100 % of control | dose: 200.0 mg/kg/injection, schedule: Q01DX001 (ip), vehicle: saline 108 % of control | dose: 400.0 mg/kg/injection, schedule: Q01DX001 (ip), vehicle: saline 114 % of control

OC1CC=CC=CC1
inactive: dose: 75.0 mg/kg/injection, schedule: Q01DX001 (ip), vehicle: saline 94 % of control | dose: 150.0 mg/kg/injection, schedule: Q01DX001 (ip), vehicle: saline 97 % of control

CC(=O)N(N=O)c1ccc(Cl)cc1[N+](=O)[O-]
inactive: dose: 50.0 mg/kg/injection, schedule: Q01DX009 (ip), vehicle: saline 101 % of control | dose: 100.0 mg/kg/injection, schedule: Q01DX009 (ip), vehicle: saline 104 % of control

NS(=O)(=O)c1ccc(S(=O)(=O)NC2CCCCC2)cc1
inactive: [7] 101 % of control | [8] 101 % of control

Cc1cccc(NC(=O)COc2ccc(Cl)cc2)c1C
inactive: [7] 97 % of control | [1] 92 % of control | [8] 94 % of control | [2] 95 % of control | [9] 97 % of control | [3] 96 % of control

Nc1cc(Cl)[nH]c(=O)n1
inactive: dose: 100.0 mg/kg/injection, schedule: Q01DX009 (ip), vehicle: gum acacia 100 % of control | dose: 200.0 mg/kg/injection, schedule: Q01DX009 (ip), vehicle: gum acacia 89 % of control

O=[N+]([O-])c1cccc(C=Nc2cc([N+](=O)[O-])ccc2O)c1
inactive: [7] 88 % of control | [8] 93 % of control

COc1cc(OC)c2c(=O)c3ccoc3n(C)c2c1OC
inactive: [14] 98 % of control | [10] 98 % of control | [11] 93 % of control | [12] 93 % of control

Fc1cnc(OC23CC4CC(CC(C4)C2)C3)nc1OC12CC3CC(CC(C3)C1)C2
inactive: [1] 86 % of control | [2] 88 % of control | [3] 88 % of control

CCOC(=O)C(=CNc1cccc(C)n1)C(=O)OCC
inactive: [15] 100 % of control | [16] 102 % of control | [17] 100 % of control

COC1OC(COC(=O)OCC(Cl)(Cl)Cl)C(OC(=O)OCC(Cl)(Cl)Cl)C(OC(=O)OCC(Cl)(Cl)Cl)C1OC(=O)OCC(Cl)(Cl)Cl (stereo not given)
inactive: dose: 75.0 mg/kg/injection, schedule: Q01DX001 (ip), vehicle: other 90 % of control | dose: 150.0 mg/kg/injection, schedule: Q01DX001 (ip), vehicle: other 92 % of control | dose: 300.0 mg/kg/injection, schedule: Q01DX001 (ip), vehicle: other 90 % of control

BrC(Br)c1ccc2ccccc2n1
inactive: [7] 89 % of control | [1] 95 % of control | [8] 94 % of control | [2] 95 % of control | [9] 94 % of control | [3] 97 % of control

O=C1OC(=O)c2ccc3c4ccc5c6c(ccc(c7ccc1c2c73)c64)C(=O)OC5=O
inactive: [4] 97 % of control | [5] 97 % of control | [6] 95 % of control

O=C1/C(=C\c2ccc(Cl)c(Cl)c2)N2CCC1CC2
inactive: dose: 100.0 mg/kg/injection, schedule: Q04DX002 (ip), vehicle: Klucel (hydroxypropylcellulose) (HPC) 96 % of control | dose: 200.0 mg/kg/injection, schedule: Q04DX002 (ip), vehicle: Klucel (hydroxypropylcellulose) (HPC) 104 % of control | dose: 400.0 mg/kg/injection, schedule: Q04DX002 (ip), vehicle: Klucel (hydroxypropylcellulose) (HPC) 114 % of control

c1ccc2cc(SCN3CCOCC3)ccc2c1
inactive: [1] 97 % of control | [2] 101 % of control | [3] 97 % of control

CCCCCCCCCCCCCCCCCC(=O)NN=C1CCCC1
inactive: [7] 95 % of control | [8] 93 % of control | [9] 107 % of control

C#CCC(B1OCCO1)B1OCCO1
inactive: [13] 97 % of control | [4] 90 % of control | [5] 100 % of control

CN(C)c1ccc(/C=C(/NC(=O)c2ccccc2)C(N)=O)cc1
inactive: [1] 94 % of control | [2] 96 % of control | [3] 94 % of control

C=C(C)C1Cc2c(ccc3c2OC2COc4cc(OC)c(OC)cc4C2(O)C3=O)O1 (stereo not given)
inactive: dose: 12.5 mg/kg/injection, schedule: Q01DX009 (ip), vehicle: carboxymethylcellulose (CMC) 107 % of control

CN(C)c1ccc(/C=C\c2cc(=O)[nH]c3ccccc23)cc1
inactive: dose: 50.0 mg/kg/injection, schedule: Q01DX009 (ip), vehicle: Klucel (hydroxypropylcellulose) (HPC) 100 % of control | [7] 102 % of control | [8] 97 % of control | [9] 97 % of control

O=C1C2ON=C(c3ccccc3)C2C(=O)N1OS(=O)(=O)c1ccccc1 (stereo not given)
inactive: [15] 98 % of control | dose: 100.0 mg/kg/injection, schedule: Q04DX003 (ip), vehicle: saline with Tween-80 103 % of control | [16] 92 % of control | dose: 200.0 mg/kg/injection, schedule: Q04DX003 (ip), vehicle: saline with Tween-80 102 % of control | [17] 88 % of control | dose: 400.0 mg/kg/injection, schedule: Q04DX003 (ip), vehicle: saline with Tween-80 90 % of control

O=P(NO)(Oc1ccccc1)Oc1ccccc1
inactive: [14] 101 % of control | [10] 95 % of control | [11] 100 % of control

CC1CN(c2nc3ccccc3o2)C(C)CN1c1nc2ccccc2o1 (stereo not given)
inactive: [10] 96 % of control | [11] 94 % of control | [12] 89 % of control

CN(N=O)C(=O)NCCc1ccc(OC(=O)N(C)N=O)cc1
inactive: dose: 0.78 mg/kg/injection, schedule: Q01DX Z (ip), vehicle: carboxymethylcellulose (CMC) 98 % of control | dose: 1.56 mg/kg/injection, schedule: Q01DX Z (ip), vehicle: carboxymethylcellulose (CMC) 110 % of control | dose: 3.12 mg/kg/injection, schedule: Q01DX Z (ip), vehicle: carboxymethylcellulose (CMC) 95 % of control | dose: 6.25 mg/kg/injection, schedule: Q01DX Z (ip), vehicle: carboxymethylcellulose (CMC) 113 % of control | dose: 12.5 mg/kg/injection, schedule: Q01DX Z (ip), vehicle: carboxymethylcellulose (CMC) 118 % of control | dose: 25.0 mg/kg/injection, schedule: Q01DX Z (ip), vehicle: carboxymethylcellulose (CMC) 124 % of control | dose: 50.0 mg/kg/injection, schedule: Q01DX Z (ip), vehicle: carboxymethylcellulose (CMC) 91 % of control

From PubChem BioAssay AID248 (DTP/NCI, 2004)
